Patent US20130344053A1, “Methods of Modifying Insulin Signaling Using Biliverdin Reductase (BVR) and BVR Derived Peptides” (University of Rochester, priority 2010, published 2013)

Key:
[1] = system: human epithelial kidney (HEK) cells; experiment: Insulin-dependent glucose uptake in HEK cells; assay type: cell-based; conditions: myristoylated peptide 2 h, then insulin 100 nM 10 min
Experimental: (§1) FIGS. 15A-B show the effect of hBVR-based peptides on IGF-dependent glucose uptake in rat smooth muscle cells (PAC1) (FIG. 15A) and insulin-dependent glucose uptake in human epithelial kidney (HEK) cells (FIG. 15B). Cells were treated as described for FIG. 14 and glucose uptake was measured as described infra.
(§2) The therapeutic utility of various BVR peptides with regard to their ability to modify insulin and insulin growth factor (IGF) mediated cellular glucose uptake was evaluated. Human embryonic kidney cells (HEK293) or rat aortic smooth muscle cells (PAC) were starved in low glucose serum-depleted DMEM for twenty hours prior to transfer to PBS containing CaCl2, MgCl2. After two hours, myristoylated peptides were added to the medium for two additional hours. Thereafter, IGF-1 (50 ng/ml) or insulin (100 nM) was added (10 min) and glucose uptake was tested for three minutes in the presence of methyl-D-glucose,3-O-[methyl-3H]. Subsequently, cells were washed three times in cold PBS and solubilized in NaOH (0.05 mM). Aliquots were measured for radioactivity. Non-specific binding or diffusion was tested by addition of 300 mM glucose to the cells. This value was deducted from the total counts (on the average <20%) and results were normalized for protein concentration.

[2] = system: rat smooth muscle cells (PAC1); experiment: Glucose uptake in PAC1 cells (IGF-dependent); assay type: cell-based; conditions: myristoylated peptide 2 h, then IGF-1 50 ng/ml 10 min
Experimental: Glucose uptake was tested as described infra. Cells were starved in low glucose serum-depleted DMEM for 20 hours prior to transfer to PBS containing CaCl2, MgCl2. After 2 hrs myristoylated peptides were added to the medium for 2 hours. Thereafter, IGF-1 (50 ng/ml) or insulin (100 nM) was added (10 min) and glucose uptake was tested for 3 min in the presence of methyl-D-glucose,3-O-[methyl-3H]. Subsequently cells were washed 3 times in cold PBS and solubilized in NaOH (0.05 mM). Aliquots were measured for radioactivity. Non-specific binding or diffusion were tested by addition of 300 mM glucose to the cells. This value was deducted from the total counts (on the average <20%) and results were normalized for protein concentration.
as §1, §2

[3] = Blood glucose levels after tail vein injection; assay type: in vivo; conditions: Sprague Dawley rats, 11 μg/g body weight, measured at 20, 40, 60, 100 min
Experimental: FIG. 16 is a graph illustrating the blood glucose levels measured over time course following tail vein injection to Sprague Dawley rats of the KKRILHC (SEQ ID NO: 60) peptide in solution (11 μg/g body weight) or a vehicle control solution.
In an experiment designed to evaluate the ability of the C-terminal KKRILHC BVR peptide fragment (SEQ ID NO: 60) to modulate insulin signaling and blood glucose levels, Sprague Dawley rats were administered, via tail vein injection, the KKRILHC peptide (SEQ ID NO: 60) in solution (11 μg/g body weight) or a vehicle control solution. […] This increase in blood glucose levels was at 20, 40, and 60 minutes following administration, gradually decreasing over the 100 minute time course of assessment.

In the case of “KKRILHC (Biliverdin reductase derived peptide) [hBVR peptide, amino acids 275-281 of BVR]”, the “insulin mediated cellular glucose uptake in HEK cells” value [1] is reported as “antagonizing insulin mediated cellular glucose uptake”, the “IGF-mediated cellular glucose uptake in PAC1 cells” value [2] is reported as “inhibit IGF-mediated cellular glucose uptake” and the “blood glucose levels compared to vehicle controls” value [3] is reported as “immediate increase in the blood glucose levels”.
